Measured values published in patent US20230085307A1, “PYRIDAZINONE COMPOUND AND HERBICIDE” (NISSAN CHEMICAL CORPORATION, priority 2019, published 2023).

Experiments:
late watergrass = test: Test Example 1: herbicidal activity, application before weed generation under submerged conditions (Table 16, symbol A); format: in vivo, late watergrass (Echinochloa oryzicola); conditions: 320 g/ha applied herbicide
Method in brief: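 Alluvial soil was flooded to 4 cm depth, weed seeds were sown mixed and 2.5-leaf rice seedlings were transplanted. On sowing day, the compound's emulsion, diluted in water to a set dose, was applied to the water surface. Plants grew at 25–30 °C and were scored 0–5 after three weeks.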

Japanese bulrush = test: Test Example 2: herbicidal activity, application during weed generation under submerged conditions (Table 17, symbol B); format: in vivo, Japanese bulrush (Schoenoplectus juncoides); conditions: AAH 320 g/ha; application during weed generation, submerged conditions
Method in brief: (§1)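 Effect on each weed is rated three weeks post-treatment, using the same scoring criteria as the preceding test. Plants grow from mixed-sown seed in flooded alluvial soil (4 cm water) at 25° C. to 30° C., and are treated at one to two leaves with diluted emulsion dropped onto the water.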

oval-leafed pondweed = test: Test Example 2: herbicidal activity, application during weed generation under submerged conditions (Table 17, symbol C); format: in vivo, oval-leafed pondweed (Monochoria vaginalis); conditions: AAH 320 g/ha; application during weed generation, submerged conditions
Method in brief: as §1

southern crabgrass [1] = test: Test Example 4: herbicidal effect by soil treatment (Table 19, symbol F); format: in vivo, southern crabgrass (Digitaria ciliaris); conditions: 320 g/ha
Method in brief: (§2)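 Soil-surface application: an emulsion agent diluted with water to the predetermined dose is sprayed uniformly over seeds lying under roughly 1.5 cm of sterilized diluvial soil. Boxes stay in a greenhouse at 25° C. to 30° C. Three weeks later, each species is graded on previously defined criteria.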

green foxtail = test: Test Example 4: herbicidal effect by soil treatment (Table 19, symbol G); format: in vivo, green foxtail (Setaria viridis); conditions: 320 g/ha
Method in brief: as §2

blackgrass = test: Test Example 4: herbicidal effect by soil treatment (Table 19, symbol J); format: in vivo, blackgrass (Alopecurus myosuroides); conditions: 320 g/ha
Method in brief: as §2

Italian ryegrass [2] = test: Test Example 4: herbicidal effect by soil treatment (Table 19, symbol K); format: in vivo, Italian ryegrass (Lolium multiflorum); conditions: 320 g/ha
Method in brief: as §2

redroot pigweed [3] = test: Test Example 4: herbicidal effect by soil treatment (Table 19, symbol N); format: in vivo, redroot pigweed (Amaranthus retroflexus); conditions: 320 g/ha
Method in brief: as §2

chickweed = test: Test Example 4: herbicidal effect by soil treatment (Table 19, symbol P); format: in vivo, common chickweed (Stellaria media); conditions: 320 g/ha
Method in brief: as §2

persian speedwell [4] = test: Test Example 4: herbicidal effect by soil treatment (Table 19, symbol R); format: in vivo, Persian speedwell (Veronica persica); conditions: 320 g/ha
Method in brief: as §2

southern crabgrass [5] = test: Test Example 5: herbicidal effect by foliage application, plastic box (Table 20, symbol F); format: in vivo, southern crabgrass (Digitaria ciliaris); conditions: foliage application, 320 g/ha, evaluated three weeks after application
Method in brief: (§3)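 Sow seeds spot-wise in sterilized diluvial soil; cover with ~1.5 cm soil. Grow 14 days in greenhouse, 25° C. to 30° C. Spray foliage with emulsion diluted to predetermined amount. Rate effect after 3 weeks.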

barnyard grass = test: Test Example 5: herbicidal effect by foliage application, plastic box (Table 20, symbol H); format: in vivo, barnyard grass (Echinochloa crus-galli); conditions: foliage application, 320 g/ha, evaluated three weeks after application
Method in brief: as §3

Italian ryegrass [6] = test: Test Example 5: herbicidal effect by foliage application, plastic box (Table 20, symbol K); format: in vivo, Italian ryegrass (Lolium multiflorum); conditions: foliage application, 320 g/ha, evaluated three weeks after application
Method in brief: as §3

redroot pigweed [7] = test: Test Example 5: herbicidal effect by foliage application, plastic box (Table 20, symbol N); format: in vivo, redroot pigweed (Amaranthus retroflexus); conditions: foliage application, 320 g/ha, evaluated three weeks after application
Method in brief: as §3

lambsquarters = test: Test Example 5: herbicidal effect by foliage application, plastic box (Table 20, symbol O); format: in vivo, lambsquarters (Chenopodium album); conditions: foliage application, 320 g/ha, evaluated three weeks after application
Method in brief: as §3

persian speedwell [8] = test: Test Example 5: herbicidal effect by foliage application, plastic box (Table 20, symbol R); format: in vivo, Persian speedwell (Veronica persica); conditions: foliage application, 320 g/ha, evaluated three weeks after application
Method in brief: as §3

| Structure (SMILES) | Herbicidal effect on A: late watergrass (grade 0-5) (late watergrass) | herbicidal effect rating, B: Japanese bulrush (Japanese bulrush) | herbicidal effect rating, C: oval-leafed pondweed (oval-leafed pondweed) | herbicidal effect rating, F: southern crabgrass (southern crabgrass [1]) | herbicidal effect rating, G: green foxtail (green foxtail) | herbicidal effect rating, J: blackgrass (blackgrass) | herbicidal effect rating, K: Italian ryegrass (Italian ryegrass [2]) | herbicidal effect rating, N: redroot pigweed (redroot pigweed [3]) | herbicidal effect rating, P: chickweed (chickweed) | herbicidal effect rating, R: persian speedwell (persian speedwell [4]) | herbicidal effect on F: southern crabgrass (southern crabgrass [5]) | herbicidal effect on H: barnyard grass (barnyard grass) | herbicidal effect on K: Italian ryegrass (Italian ryegrass [6]) | herbicidal effect on N: redroot pigweed (redroot pigweed [7]) | herbicidal effect on O: lambsquarters (lambsquarters) | herbicidal effect on R: persian speedwell (persian speedwell [8]) |
| --- | --- | --- | --- | --- | --- | --- | --- | --- | --- | --- | --- | --- | --- | --- | --- | --- |
| Cc1nn(C)c(=O)c(-c2c(-c3ccc(OCC(F)(F)F)cc3)sc3ccc(F)cc23)c1O [2-049] | 2 (Herbicidal rate of 20% or more and less than 40%) | 2 (Herbicidal rate of 20% or more and less than 40%) | 2 (Herbicidal rate of 20% or more and less than 40%) | 4 (Herbicidal rate of 70% or more and less than 90%) | 5 (Herbicidal rate of 90% or more (almost completely withered)) | 4 (Herbicidal rate of 70% or more and less than 90%) | 4 (Herbicidal rate of 70% or more and less than 90%) | 5 (Herbicidal rate of 90% or more (almost completely withered)) | 5 (Herbicidal rate of 90% or more (almost completely withered)) | 4 (Herbicidal rate of 70% or more and less than 90%) | 5 (Herbicidal rate of 90% or more (almost completely withered)) | 5 (Herbicidal rate of 90% or more (almost completely withered)) | 5 (Herbicidal rate of 90% or more (almost completely withered)) | 5 (Herbicidal rate of 90% or more (almost completely withered)) | 5 (Herbicidal rate of 90% or more (almost completely withered)) | 5 (Herbicidal rate of 90% or more (almost completely withered)) |
| C=CCOc1ccc(-c2sc3ccc(F)cc3c2-c2c(O)c(C)nn(C)c2=O)cc1 [2-051] | 3 (Herbicidal rate of 40% or more and less than 70%) | 3 (Herbicidal rate of 40% or more and less than 70%) | 1 (Herbicidal rate of 5% or more and less than 20%) | 5 (Herbicidal rate of 90% or more (almost completely withered)) | 5 (Herbicidal rate of 90% or more (almost completely withered)) | 0 (Herbicidal rate of 5% or less (almost no effect)) | 0 (Herbicidal rate of 5% or less (almost no effect)) | 5 (Herbicidal rate of 90% or more (almost completely withered)) | 1 (Herbicidal rate of 5% or more and less than 20%) | 4 (Herbicidal rate of 70% or more and less than 90%) | 5 (Herbicidal rate of 90% or more (almost completely withered)) | 5 (Herbicidal rate of 90% or more (almost completely withered)) | 4 (Herbicidal rate of 70% or more and less than 90%) | 5 (Herbicidal rate of 90% or more (almost completely withered)) | 5 (Herbicidal rate of 90% or more (almost completely withered)) | 5 (Herbicidal rate of 90% or more (almost completely withered)) |
| C#CCOc1ccc(-c2sc3ccc(F)cc3c2-c2c(O)c(C)nn(C)c2=O)cc1 [2-053] | 2 (Herbicidal rate of 20% or more and less than 40%) | 3 (Herbicidal rate of 40% or more and less than 70%) | 3 (Herbicidal rate of 40% or more and less than 70%) | 0 (Herbicidal rate of 5% or less (almost no effect)) | 4 (Herbicidal rate of 70% or more and less than 90%) | 0 (Herbicidal rate of 5% or less (almost no effect)) | 0 (Herbicidal rate of 5% or less (almost no effect)) | 0 (Herbicidal rate of 5% or less (almost no effect)) | 1 (Herbicidal rate of 5% or more and less than 20%) | 5 (Herbicidal rate of 90% or more (almost completely withered)) | 4 (Herbicidal rate of 70% or more and less than 90%) | 5 (Herbicidal rate of 90% or more (almost completely withered)) | 5 (Herbicidal rate of 90% or more (almost completely withered)) | 5 (Herbicidal rate of 90% or more (almost completely withered)) | 5 (Herbicidal rate of 90% or more (almost completely withered)) | 5 (Herbicidal rate of 90% or more (almost completely withered)) |
| CSc1ccc(-c2sc3ccc(F)cc3c2-c2c(O)c(C)nn(C)c2=O)cc1 [2-076] | 3 (Herbicidal rate of 40% or more and less than 70%) | 3 (Herbicidal rate of 40% or more and less than 70%) | 0 (Herbicidal rate of 5% or less (almost no effect)) | 3 (Herbicidal rate of 40% or more and less than 70%) | 4 (Herbicidal rate of 70% or more and less than 90%) | 0 (Herbicidal rate of 5% or less (almost no effect)) | 4 (Herbicidal rate of 70% or more and less than 90%) | 5 (Herbicidal rate of 90% or more (almost completely withered)) | 4 (Herbicidal rate of 70% or more and less than 90%) | 5 (Herbicidal rate of 90% or more (almost completely withered)) | 5 (Herbicidal rate of 90% or more (almost completely withered)) | 5 (Herbicidal rate of 90% or more (almost completely withered)) | 4 (Herbicidal rate of 70% or more and less than 90%) | 5 (Herbicidal rate of 90% or more (almost completely withered)) | 5 (Herbicidal rate of 90% or more (almost completely withered)) | 5 (Herbicidal rate of 90% or more (almost completely withered)) |
| CCCC(=O)Oc1c(C)nn(C)c(=O)c1-c1c(-c2ccc(SC)cc2)sc2ccc(F)cc12 [2-077] | 3 (Herbicidal rate of 40% or more and less than 70%) | 3 (Herbicidal rate of 40% or more and less than 70%) | 3 (Herbicidal rate of 40% or more and less than 70%) | 2 (Herbicidal rate of 20% or more and less than 40%) | 4 (Herbicidal rate of 70% or more and less than 90%) | 2 (Herbicidal rate of 20% or more and less than 40%) | 3 (Herbicidal rate of 40% or more and less than 70%) | 5 (Herbicidal rate of 90% or more (almost completely withered)) | 5 (Herbicidal rate of 90% or more (almost completely withered)) | 5 (Herbicidal rate of 90% or more (almost completely withered)) | 5 (Herbicidal rate of 90% or more (almost completely withered)) | 5 (Herbicidal rate of 90% or more (almost completely withered)) | 5 (Herbicidal rate of 90% or more (almost completely withered)) | 5 (Herbicidal rate of 90% or more (almost completely withered)) | 5 (Herbicidal rate of 90% or more (almost completely withered)) | 5 (Herbicidal rate of 90% or more (almost completely withered)) |
